Results as given in article PMC3372625 (Journal of Controlled Release, 2012).

Legend:
H9C2 cells [1] = assay: Reactive oxygen species; format: cell-based; settings: various concentrations of CoCl2; figure 2b
H9C2 cells [2] = assay: Cell viability; format: cell-based; settings: in the presence of CoCl2; figure 2c
cells = settings: cited from earlier work

Molecule	generation of ROS (H9C2 cells [1])	CoCl2 toxicity (cell viability) (H9C2 cells [2])	cytotoxicity (cells)
[Cl][Co][Cl] [CoCl2, cobalt chloride]	dependent on the concentration of CoCl2 up to 25 μmol	no artifact caused by CoCl2 toxicity	–
Branched poly(ethylenimine) [PEI]	–	–	less than 10%
